Values quoted from earlier work, collected in patent US20040121961A1, “Uroguanylin and cyclooxygenase-2 inhibitor combinations for inhibition of intestinal cancer” (priority 2004, published 2004).
No end group written: not given here.

What was measured:
[1] = system: T-84, human colon carcinoma cells; conditions: treatment with uroguanylin; reported in PCT/US00/21998
[2] = system: Min-mouse, an animal model for human Familial Adenomatous Polyposis (FAP); conditions: oral administration, reported in PCT/US00/21998

uroguanylin: enteric peptide hormone, GC-C receptor agonist; human uroguanylin chemically synthesized by solid phase peptide synthesis (NDDCELCVNVACTGCL; ends and bridges not checked; cysteine pairing not given here; UniProt Q16661 97-112, looked up)
apoptosis in T-84 cells [1]: induction of apoptosis | polyp formation in the intestinal tract [2]: inhibition in polyp formation
